Assay results as given in patent US7323303B2, “Modified β-lactamases and uses thereof” (priority 2003, dated 2008).

Assays:
[1] = target: T1, E166C mutant of β-lactamase I (Bacillus cereus, UniProt P00809, E185C); assay: Spectrophotometric substrate hydrolysis, steady-state kinetics; type: biochemical; details: 50 mM potassium phosphate buffer pH 7.0, 20° C.
T1 construct: made in house; host or cells: B. subtilis 1A304 (φ105MU331)
T1 sequence (P00809 28-306 E185C): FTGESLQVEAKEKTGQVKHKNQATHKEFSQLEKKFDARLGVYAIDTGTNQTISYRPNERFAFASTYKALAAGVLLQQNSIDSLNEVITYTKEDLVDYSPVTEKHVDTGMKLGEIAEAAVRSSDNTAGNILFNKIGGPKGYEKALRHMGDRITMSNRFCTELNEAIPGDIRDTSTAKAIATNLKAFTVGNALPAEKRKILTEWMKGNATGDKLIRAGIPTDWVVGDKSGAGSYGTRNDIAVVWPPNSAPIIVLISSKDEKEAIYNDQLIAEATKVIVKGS
Procedure: (§1) The hydrolytic activities of the wild-type β-lactamase I, E166C and E166Cf mutants towards penicillin G, penicillin V and ampicillin (Sigma) were monitored by the spectrophotometric method. The spectrophotometric measurements were performed on a Perkin Elmer Lambda Bio20 UV/Vis spectrometer. Substrate hydrolysis was monitored at a fixed wavelength: 235 nm for ampicillin, 232 nm for penicillin G and penicillin V. The initial rate of substrate hydrolysis occurring within 5 min was determined in duplicate at each of 6 different substrate concentrations in 50 mM potassium phosphate buffer (pH 7.0) at 20° C. The initial rates determined were then treated as described in Reference 5 to calculate the Michaelis constants (Km) and turnover numbers (kcat) using non-linear regression analysis (equation 1):
(§2) [formula] where v is the initial rate of substrate hydrolysis, Vmax the maximum rate of reaction, [S] the initial substrate concentration, Km the Michaelis constant and kcat=Vmax/[Enzyme].
(§3) The measured steady-state kinetic parameters for hydrolysis of penicillin G, penicillin V and ampicillin by the wild-type β-lactamase I, E166C and E166Cf mutants are summarized in Table 1.

wild-type β-lactamase I = target: T2, wild-type β-lactamase I (Bacillus cereus, UniProt P00809); assay: as above; type: biochemical; details: 50 mM potassium phosphate buffer pH 7.0, 20° C.
T2 construct: made in house; host or cells: B. subtilis 1A304 (φ105MU331)
T2 sequence (P00809 28-306): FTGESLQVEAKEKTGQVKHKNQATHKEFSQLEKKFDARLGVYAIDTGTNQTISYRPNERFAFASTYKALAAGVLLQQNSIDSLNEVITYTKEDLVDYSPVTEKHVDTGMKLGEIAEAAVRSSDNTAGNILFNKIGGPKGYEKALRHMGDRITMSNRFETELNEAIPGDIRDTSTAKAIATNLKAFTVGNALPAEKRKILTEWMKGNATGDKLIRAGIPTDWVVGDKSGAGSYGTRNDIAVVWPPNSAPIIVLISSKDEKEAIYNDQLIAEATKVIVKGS
Procedure: as §1, §2, §3

E166Cf enzyme = target: T3, E166Cf enzyme (Bacillus cereus, UniProt P00809, E185C); assay: Detection of β-lactam antibiotics in milk by E166Cf fluorescence; details: untreated milk; E166Cf 1.2×10^−7 M
T3 construct: made in house; host or cells: B. subtilis 1A304 (φ105MU331); then labelled chemically
T3 sequence (P00809 28-306 E185C): T1 sequence (P00809 28-306 E185C)
Procedure: Fluorescence measurements of the E166Cf enzyme in milk in the presence of penicillin G and ampicillin were performed on a FLUOstar microplate reader (BMG Labtechnologies) equipped with two sample injectors. Excitation and emission filters of 485 and 520 nm respectively were used. Milk (pasteurized and homogenized, Nestle Dairy Farm) was purchased at a local supermarket. The labeled enzyme was mixed with the milk sample in a 96-well microtiter plate (Corning Costar). The antibiotics were then added to the mixtures by the injectors.
FIGS. 21 and 22 show the results from the time-resolved fluorescence measurements of the labeled enzyme (1.2×10^−7 M) in untreated milk in the presence of various concentrations of penicillin G and ampicillin respectively.

[2] = target: T4, B. cereus penPC β-lactamase (Bacillus cereus, UniProt P00809); assay: Drug screening: E166Cf fluorescence in presence of bacterial β-lactamase culture; type: biochemical; set-up: key: −: Decline in fluorescence signal (presence of beta-lactam hydrolysis); +: No decline in fluorescence signal (absence of beta-lactam hydrolysis); details: antibiotic 1.0×10^−4 M, E166Cf 1.2×10^−7 M
T4 construct: made in house; host or cells: B. subtilis 1A304 (φ105MU331); whole culture used, not purified
T4 sequence (P00809 28-306): as above
Procedure: (§4) The use of the E166Cf enzyme in screening bacterial β-lactamases against various β-lactam antibiotics was investigated. The principle of our method is that when both E166Cf and bacterial β-lactamase are incubated with ‘β-lactamase-unstable’ antibiotics, the fluorescence of the E166Cf enzyme will be suppressed because of the greater catalytic efficiency of the bacterial enzyme. In contrast, when bacterial β-lactamases are screened against ‘β-lactamase-resistant’ antibiotics, the fluorescence of the E166Cf enzyme will be enhanced because of the poor hydrolytic activity of the bacterial enzyme. Thus, any β-lactam antibiotic that causes the labeled enzyme to increase its fluorescence intensity in the presence of bacterial β-lactamases can be used in clinical treatments.
(§5) The β-lactamase II, penPC β-lactamase and penP β-lactamase were expressed in B. subtilis 1A304 (φ105MU331). These enzymes were prepared according to the procedures described previously (Reference 7: Thomwell, S. J. East, A. K., Errington, J. An efficient expression and secretion system based on Bacillus subtilis phage phi 105 and its uses for the production for B. cereus β-lactamase I. (1993) Gene 133, 47-53) with slight modifications. A bacterial strain was streaked on an agar plate containing 5 μg/ml chloramphenicol, and the plate was incubated at 37° C. for 24 h. A single bacterial colony from the agar plate was inoculated into 100 ml of sterilized BHY medium (37 g/l brain heart infusion and 5 g/l yeast extract) which was then incubated at 37° C. with shaking at 300 rpm overnight. About 7 ml of overnight inoculum was added to a baffled conical flask containing 100 ml of sterilized BHY medium. The inoculated medium was incubated at 37° C. with shaking at 300 rpm. When the optical density of the bacterial culture at 600 nm reached 3.5 to 4.0, the bacterial culture was heated in a water bath at 51° C. for 5 min. Afterwards, the bacterial culture was incubated at 37° C. with shaking at 300 rpm for a further 6 h. The bacterial culture was then harvested and stored at −20° C.
(§6) Fluorescence measurements of the E166Cf enzyme in the presence of bacterial cultures and β-lactam antibiotics were performed on a FLUOstar microplate reader (BMG Labtechnologies) equipped with two sample injectors. Excitation and emission filters of 485 and 520 nm respectively were used. For B. cereus penPC β-lactamase, B. licheniformis penP β-lactamase and B. cereus β-lactamase II, the labeled enzymes were mixed with the bacterial cultures, and the mixtures were made up to 300 μl with 50 mM phosphate buffer (pH 7.0) in a 96-well microtiter plate (Corning Costar). For the purpose of comparison, B. subtilis cultures, which produced no β-lactamase, were set up as negative controls. For E. coli. TEM-1 β-lactamase, the labeled enzymes were mixed with the bacterial cultures without dilution. E. coli. cultures, which produced no β-lactamase, were set up as negative controls for comparison. The antibiotics were then added to the bacterial samples by the injectors.
(§7) The results from the time-resolved fluorescence measurements of the labeled enzyme (1.2×10^−7 M) in the presence of various bacterial cultures and β-lactam antibiotics (1.0×10^−4 M) are shown in FIGS. 23 to 26.

B. cereus β-lactamase II = target: T5, B. cereus β-lactamase II (Bacillus cereus, UniProt P04190); assay: as above; type: biochemical; set-up: key: −: Decline in fluorescence signal (presence of beta-lactam hydrolysis); +: No decline in fluorescence signal (absence of beta-lactam hydrolysis); details: antibiotic 1.0×10^−4 M, E166Cf 1.2×10^−7 M
T5 construct: made in house; host or cells: B. subtilis 1A304 (φ105MU331); whole culture used, not purified
T5 sequence (P04190 31-257): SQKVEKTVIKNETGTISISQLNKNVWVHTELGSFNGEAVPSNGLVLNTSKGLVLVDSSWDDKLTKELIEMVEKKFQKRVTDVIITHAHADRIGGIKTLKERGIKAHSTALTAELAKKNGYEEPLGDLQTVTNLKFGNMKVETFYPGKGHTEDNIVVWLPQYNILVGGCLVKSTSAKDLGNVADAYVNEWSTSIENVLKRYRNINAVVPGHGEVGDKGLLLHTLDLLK
Procedure: as §4, §5, §6, §7

[3] = target: T6, B. licheniformis penP β-lactamase (Bacillus licheniformis, UniProt P00808); assay: as above; type: biochemical; set-up: key: −: Decline in fluorescence signal (presence of beta-lactam hydrolysis); +: No decline in fluorescence signal (absence of beta-lactam hydrolysis); details: antibiotic 1.0×10^−4 M, E166Cf 1.2×10^−7 M
T6 construct: made in house; host or cells: B. subtilis 1A304 (φ105MU331); whole culture used, not purified
T6 sequence (P00808 27-307): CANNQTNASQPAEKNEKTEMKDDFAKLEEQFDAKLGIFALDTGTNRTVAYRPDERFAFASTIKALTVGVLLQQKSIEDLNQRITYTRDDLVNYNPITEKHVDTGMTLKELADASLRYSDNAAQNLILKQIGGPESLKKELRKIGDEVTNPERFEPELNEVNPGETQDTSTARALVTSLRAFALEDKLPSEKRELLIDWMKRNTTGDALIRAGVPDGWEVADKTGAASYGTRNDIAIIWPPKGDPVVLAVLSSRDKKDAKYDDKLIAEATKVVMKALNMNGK
Procedure: as §4, §5, §6, §7

CC1(C)S[C@@H]2[C@H](NC(=O)Cc3ccccc3)C(=O)N2[C@H]1C(=O)O [Penicillin G, penicillin G]
Km [1]: 72 ± 3 µM
kcat [1]: 2.07 ± 0.02 s⁻¹
Km (wild-type β-lactamase I): 48 ± 3 µM
kcat (wild-type β-lactamase I): 2612 ± 320 s⁻¹
lowest concentration detected by the labeled enzyme (E166Cf enzyme): 10^−6 M
fluorescence signal of E166Cf (beta-lactam hydrolysis) [2]: −
fluorescence signal of E166Cf (beta-lactam hydrolysis) (B. cereus β-lactamase II): −
fluorescence signal of E166Cf (beta-lactam hydrolysis) [3]: −
